# Experimental data reported in EP0877740B1, “THIOL DERIVATIVES WITH METALLOPEPTIDASE INHIBITORY ACTIVITY” (ZAMBON GROUP S.p.A., priority 1995, dated 1997).
# What was measured:
# ACE = molecular target: T1, ACE (Oryctolagus cuniculus, UniProt P12822); assay: In vitro ACE-inhibitory activity (FAPGG substrate, spectrophotometric); assay type: biochemical; details: ACE purified by lung rabbit, FAPGG 0.8 mM, 37°C
# T1 construct: ACE (250 mU/ml purified by lung rabbit, EC 3.4.15.1 SIGMA); purchased SIGMA; host or cells: rabbit lung (tissue-purified)
# T1 sequence (P12822 34-1310): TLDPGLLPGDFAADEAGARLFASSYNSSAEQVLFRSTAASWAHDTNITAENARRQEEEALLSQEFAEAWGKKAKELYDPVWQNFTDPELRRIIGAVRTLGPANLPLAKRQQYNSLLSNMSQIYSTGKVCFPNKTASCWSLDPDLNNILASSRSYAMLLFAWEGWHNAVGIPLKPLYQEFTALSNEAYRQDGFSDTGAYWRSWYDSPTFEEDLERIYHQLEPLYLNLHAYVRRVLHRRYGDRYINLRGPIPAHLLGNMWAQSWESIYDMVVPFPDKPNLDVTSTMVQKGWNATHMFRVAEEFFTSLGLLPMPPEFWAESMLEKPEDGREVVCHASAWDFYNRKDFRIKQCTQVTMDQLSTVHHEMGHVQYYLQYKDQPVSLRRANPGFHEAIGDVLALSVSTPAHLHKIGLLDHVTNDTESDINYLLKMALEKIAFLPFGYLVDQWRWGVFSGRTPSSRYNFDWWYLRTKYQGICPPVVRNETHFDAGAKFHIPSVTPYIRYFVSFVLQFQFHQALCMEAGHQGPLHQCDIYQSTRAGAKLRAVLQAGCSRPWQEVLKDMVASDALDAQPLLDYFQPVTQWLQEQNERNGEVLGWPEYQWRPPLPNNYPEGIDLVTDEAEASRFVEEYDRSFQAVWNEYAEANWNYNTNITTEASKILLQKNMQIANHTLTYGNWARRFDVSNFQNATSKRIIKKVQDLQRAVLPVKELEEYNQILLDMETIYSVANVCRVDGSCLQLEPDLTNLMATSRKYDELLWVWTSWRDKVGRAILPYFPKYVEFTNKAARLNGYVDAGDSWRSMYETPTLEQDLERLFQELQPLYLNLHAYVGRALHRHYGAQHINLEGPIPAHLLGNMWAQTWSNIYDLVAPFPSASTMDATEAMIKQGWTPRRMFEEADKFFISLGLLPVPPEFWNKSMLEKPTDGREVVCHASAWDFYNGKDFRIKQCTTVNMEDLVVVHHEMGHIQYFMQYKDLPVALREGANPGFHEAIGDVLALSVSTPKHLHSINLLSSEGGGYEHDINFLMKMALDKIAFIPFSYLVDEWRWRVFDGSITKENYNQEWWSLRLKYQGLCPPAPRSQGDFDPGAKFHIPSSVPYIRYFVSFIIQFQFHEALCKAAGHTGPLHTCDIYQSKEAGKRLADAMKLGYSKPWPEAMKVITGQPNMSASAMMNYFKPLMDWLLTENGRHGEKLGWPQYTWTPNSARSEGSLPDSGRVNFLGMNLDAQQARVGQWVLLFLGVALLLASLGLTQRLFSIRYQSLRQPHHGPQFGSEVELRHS
# Procedure: […] of ACE (250 mU/ml purified by lung rabbit, EC 3.4.15.1 SIGMA) were preincubated with 50 µl of the compound of formula I or of the reference compound or related vehicle in thermostated cuvettes at 37°C.
# The reaction was started by adding furylacryloylphenylalanylglycylglycine 0.8 mM (FAPGG-SIGMA).
# Contemporaneously, by using a Beckman DU-50 spectrophotometer provided with a program for calculating delta A/minutes and regression coefficients of the enzyme kinetics curves, the absorbance at 340 nm was recorded in continuo for 5 minutes.
# The percentage of the enzyme inhibition in the preparations treated with the compounds of formula I or with the comparative compounds with respect to the untreated preparations was expressed as IC50 (nM) value.
# NEP = molecular target: T2, NEP (Rattus norvegicus, UniProt P07861); assay: In vitro NEP-inhibitory activity in rat kidney cortex membranes ([3H][Leu5]-enkephaline hydrolysis); assay type: biochemical; design: Kidneys were removed from male Sprague-Dawley rats weighing approximately 300 g; from tissue; host or cells: rat kidney cortex membranes (male Sprague-Dawley); details: [3H][Leu5]-enkephaline 15 nM, 30°C
# T2 sequence (P07861 1-750): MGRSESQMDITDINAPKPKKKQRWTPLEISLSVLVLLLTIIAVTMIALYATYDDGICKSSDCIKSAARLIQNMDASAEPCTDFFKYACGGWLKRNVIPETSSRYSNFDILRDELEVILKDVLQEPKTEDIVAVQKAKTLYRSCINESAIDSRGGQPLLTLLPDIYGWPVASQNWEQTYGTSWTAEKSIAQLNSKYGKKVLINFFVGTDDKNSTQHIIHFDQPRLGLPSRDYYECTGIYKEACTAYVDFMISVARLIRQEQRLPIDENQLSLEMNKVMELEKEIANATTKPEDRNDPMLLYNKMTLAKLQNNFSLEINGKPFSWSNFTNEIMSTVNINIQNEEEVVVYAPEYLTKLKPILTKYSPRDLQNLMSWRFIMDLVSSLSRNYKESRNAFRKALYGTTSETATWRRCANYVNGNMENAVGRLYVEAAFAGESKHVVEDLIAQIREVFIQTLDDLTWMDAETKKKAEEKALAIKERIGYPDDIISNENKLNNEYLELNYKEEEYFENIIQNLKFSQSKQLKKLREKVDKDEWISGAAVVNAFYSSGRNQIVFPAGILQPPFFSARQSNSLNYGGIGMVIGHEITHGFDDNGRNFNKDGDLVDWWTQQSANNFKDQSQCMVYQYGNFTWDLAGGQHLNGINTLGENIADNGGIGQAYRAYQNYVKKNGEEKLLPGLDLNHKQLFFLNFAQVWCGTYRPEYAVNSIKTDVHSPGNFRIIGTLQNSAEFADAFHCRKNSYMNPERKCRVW
# Procedure: The NEP-inhibitory activity was evaluated in rat kidney cortex membranes prepared according to the procedure described by T. Maeda et al. in Biochim. Biophys.
# Kidneys were removed from male Sprague-Dawley rats weighing approximately 300 g and kept at 4°C.
# Kidney cortex was carefully dissected, finely minced and suspended in a homogenization buffer (10 mM sodium phosphate pH 7.4 containing 1 mM MgCl2, 30 mM NaCl, 0.02% NaN3) 1:15 weight/volume.
# The tissue was then cold homogenized for 30 seconds using an Ultra-Turrax homogenizer.
# The membranes were collected from the buffer/sucrose interface, washed twice with 50 mM TRIS/HCl buffer (pH 7.4) and resuspended into the same buffer for storage in small aliquots at -80°C until use.
# The NEP-inhibitory activity was evaluated by using the method described by C.
# Aliquots of the membrane suspension prepared as above described (concentration 5 µg/ml of proteins) were preincubated in the presence of an aminopeptidase inhibitor (Bestatin - 1 mM) for 10 minutes at 30°C.
# Incubation (20 minutes at 30°C) was stopped by adding HCI 0.1M (100 µl).
# The formation of the metabolite [^3H]Tyr-Gly-Gly was quantified by chromatography on polystyrene columns (Porapak Q).
# The percentage of inhibition of the metabolite formation in the membrane preparations treated with the compounds of formula I and with the comparative compounds with respect to the untreated membrane preparations was expressed as IC50 (nM) value.
structure (smiles),measurement,setting,value
"O=C(N[C@@H](Cc1ccc(-c2nccs2)cc1)C(=O)O)[C@@H](CS)Cc1ccccc1 [Compound 16, N-[(2S)-3-mercapto-2-phenylmethylpropionyl]-4-(2-thiazolyl)-L-phenylalanine]",IC50,ACE,3.2 nM
same,IC50,NEP,1.8 nM
